Measurements reported in patent US11369605B2, “Optically active azabicyclo ring derivative” (priority 2018, dated 2022).
pIC50: −log10 of the molar value.

Key:
Type in all cases: cell-based
RS4; 11 cells = assay: Test 2: inhibition of cell proliferation, RS4; 11; details: Homo sapiens; RS4; 11 cells, cultured 7 days, PrestoBlue
Protocol: (§1) Test for Evaluating the Inhibition of Cell Proliferation RS4; 11 cells were obtained from American Type Culture Collection (ATCC). […] MOLM-13 cells were separately obtained from DSMZ (Deutsche Sammlung von Mikroorganismen und Zeilkulturen GmbH). […] The cells were plated to a 96-well plate in 2000 cells/well, each test compound was added thereto to adjust the final concentration of DMSO to 0.1% of DMSO, and the cells were cultured for 7 days. After the cultivation, the cell viability was calculated with PrestoBlue™ Cell Viability Reagent (Invitrogen, A13261).

MOLM-13 cells = assay: Test 2: inhibition of cell proliferation, MOLM-13; details: Homo sapiens, cultured 7 days, PrestoBlue
Protocol: as §1

[1] = tested on: MEIS1 mRNA in MV4; 11 cells; assay: Test 3: inhibition of mRNA transcription, MEIS1
Protocol: (§2) Test 3: Test for the Inhibition of mRNA Transcription with Test Compounds
(§3) MV4; 11 cells were obtained from American Type Culture Collection (ATCC). […] After the incubation, the total RNA was extracted from the cells with RNeasy™ Mini Kit (QIAGEN, 74106), and cDNA was synthesized with Superscript™ VILO™ cDNA Synthesis Kit (Invitrogen, #11754250). By using TaqMan™ Gene Expression Master Mix (Applied Biosystems, 4369016) and TaqMan™ probe (Applied Biosystems), the expression level of mRNA was quantified from the obtained cDNA with 7900HT (Applied Biosystems). The expression level of each obtained gene (MEIS1 and HOXA9) was fitted with the expression level of mRNA of GAPDH.

[2] = tested on: HOXA9 mRNA in MV4; 11 cells; assay: Test 3: inhibition of mRNA transcription, HOXA9; details: 20 to 24 hours, fitted with GAPDH
Protocol: as §2, §3

Question: What does the source list for `C=C1C[C@@H]2CC[C@H]1[C@@H](C(=O)N1CC3(C1)CN(c1ncncc1Oc1ccc(F)cc1C(=O)N(C(C)C)C(C)C)C3)N2` [Example 7, 5-fluoro-2-[(4-{6-[(1S,3S,4R)-5-methylidene-2-azabicyclo[2.2.2]octane-3-carbonyl]-2,6-diazaspiro[3.3]heptan-2-yl}pyrimidin-5-yl)oxy]-N,N-di(propan-2-yl)benzamide]?
Answer: pIC50 (RS4; 11 cells): 8.00; pIC50 (MOLM-13 cells): 7.52; mRNA transcription inhibition activity (in words) ([1]; MEIS1 and HOXA9, MV4, summary of Test 3): showed the mRNA transcription inhibition activity; mRNA at 1 μM (% control) MEIS1 ([1]; MV4, 1 μM, 20 to 24 hours, fitted with GAPDH): 12.7 % control; mRNA at 1 μM (% control) HOXA9 [2]: 37.9 % control
